Results published in patent US10702506B2, “Small molecule inhibitors of pendrin ion exchange and pharmaceutical compositions” (THE REGENTS OF THE UNIVERSITY OF CALIFORNIA, priority 2016, dated 2020).

Columns and labels:
pendrin [1] = target: T1, pendrin (Homo sapiens, UniProt O43511); test: BCECF assay of Cl−/HCO3− exchange in primary HBE and CFBE cell cultures; type: cell-based; design: endogenous in cells; host or cells: primary human bronchial epithelial cultures from non-CF (HBE) and CF (CFBE) donors, with or without IL-13; conditions: 25 μM
T1 sequence (O43511 1-780): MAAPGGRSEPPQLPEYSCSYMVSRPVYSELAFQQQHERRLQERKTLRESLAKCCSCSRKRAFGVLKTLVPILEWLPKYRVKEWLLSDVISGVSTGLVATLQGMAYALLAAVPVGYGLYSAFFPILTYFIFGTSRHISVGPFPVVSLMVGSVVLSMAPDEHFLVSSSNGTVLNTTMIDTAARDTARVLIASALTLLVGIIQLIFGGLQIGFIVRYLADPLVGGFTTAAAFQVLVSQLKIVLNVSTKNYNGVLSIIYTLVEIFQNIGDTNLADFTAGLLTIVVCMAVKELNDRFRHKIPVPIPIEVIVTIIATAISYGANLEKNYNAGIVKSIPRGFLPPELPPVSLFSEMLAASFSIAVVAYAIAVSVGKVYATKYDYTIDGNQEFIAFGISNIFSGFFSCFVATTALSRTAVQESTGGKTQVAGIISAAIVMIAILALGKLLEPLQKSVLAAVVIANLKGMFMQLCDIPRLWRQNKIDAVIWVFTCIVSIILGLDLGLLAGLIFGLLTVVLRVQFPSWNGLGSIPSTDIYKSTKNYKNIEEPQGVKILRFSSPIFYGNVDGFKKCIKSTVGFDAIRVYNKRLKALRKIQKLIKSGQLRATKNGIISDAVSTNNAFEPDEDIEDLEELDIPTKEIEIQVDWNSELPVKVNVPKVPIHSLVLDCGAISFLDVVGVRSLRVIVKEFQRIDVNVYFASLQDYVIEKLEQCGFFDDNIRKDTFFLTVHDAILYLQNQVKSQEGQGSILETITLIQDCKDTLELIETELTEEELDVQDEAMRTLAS
Experimental: Bronchial tissues were obtained from non-CF (without significant airway disease) and CF subjects following lung transplantation, or from lungs donated for transplantation but subsequently found to be unsuitable for that purpose. Non-CF and CF human bronchial epithelial (HBE and CFBE, respectively) cell cultures were grown at an air-liquid interface as described in detail. At 21 days post-seeding, cells typically formed a tight epithelium (RTE>1000 Ωcm^2). In some experiments, the culture medium was supplemented with 10 ng/ml recombinant human IL-13 (Peprotech, Rocky Hill, N.J.) for 7 days starting at day 21 of culture. […] Pendrin transcript levels in human primary cells were measured by Taqman quantitative PCR using the Hs00166504_m1 probe set (ThermoFisher Scientific, Grand Island, N.Y.) at the UCSF Helen Diller Cancer Center Genome Analysis Core. […]
Cytoplasmic pH (pHi) was measured to assay pendrin-mediated Cl^−/HCO3^− exchange in pendrin-expressing FRT cells and primary cell cultures using the pH-sensitive fluorescent probe BCECF. […] BCECF pH-sensitive fluorescence (490 nm excitation, 535 nm emission) was acquired at 0.5 Hz, with control experiments confirming that BCECF pH-insensitive fluorescence was not altered during exchange protocols. In some experiments pHi changes in the absence of HCO3^− were measured using buffers in which NaCl or Na gluconate replaced NaHCO3^−. […]

pendrin [2] = target: T1, pendrin; test: BCECF cytoplasmic pH assay of pendrin-mediated Cl−/HCO3− exchange in pendrin-expressing FRT cells; type: cell-based; design: expressed in transfected cells
Experimental: Cytoplasmic pH (pHi) was measured to assay pendrin-mediated Cl^−/HCO3^− exchange in pendrin-expressing FRT cells and primary cell cultures using the pH-sensitive fluorescent probe BCECF. Cells were loaded for 20 min using 10 μM BCECF-AM (Invitrogen, Carlsbad, Calif.) in HCO3^−-containing buffer (in mM: 120 NaCl, 5 KCl, 1 CaCl2), 1 MgSO4, 10 glucose, 5 Hepes, 25 NaHCO3; pH 7.4) at 27° C. in a tissue culture incubator. Cells were washed and transferred to the stage of a TE2000 microscope (Nikon, Melville, N.Y.) equipped with a C9100 EM-CCD (Hamamatsu, San Jose, Calif.), XCite light source (Excelitas, Waltham, Mass.), Nikon 20×N.A. 0.75 S Fluor objective, Uniblitz shutter (Vincent Associates, Rochester, N.Y.), and filters for BCECF fluorescence (Chroma, Bellows Fall, Vt.), where they were purged with 95% O2/5% CO2. […] BCECF pH-sensitive fluorescence (490 nm excitation, 535 nm emission) was acquired at 0.5 Hz, with control experiments confirming that BCECF pH-insensitive fluorescence was not altered during exchange protocols. In some experiments pHi changes in the absence of HCO3^− were measured using buffers in which NaCl or Na gluconate replaced NaHCO3^−. To relate BCECF fluorescence to pH, a calibration curve over the quasi-linear range of BCECF sensitivity (pH 6.6-7.7) was generated as described. […]

## Cn1nc(COc2cccc(F)c2)c2c1CCN(C(=O)Nc1ccc(Cl)cc1)C2 [PDSinh-A01]
Pendrin [1]; IL-13-treated
  effect on intracellular alkalinization in response to gluconate gradient, IL-13-treated cultures: inhibited
Pendrin [1]; no added IL-13, 30 min
  effect on pH changes in response to gluconate gradient, control cultures: not altered
Pendrin [2]; 25 μM
  inhibition of cytoplasmic alkalinization (Cl−/HCO3− exchange): strongly inhibited
Pendrin [2]; Cl−/HCO3− exchange, read-out: concentration giving fifty percent inhibition of Cl−/HCO3− exchange
  IC50: ~2.5 µM
